Laboratory results: US10274456B2, “Method and system for sensing” (Ramot at Tel-Aviv University Ltd., priority 2013, dated 2019)

Tests used:
Assay type in all cases: cell-based, Human
Jurkat cells [1] = assay: Cell proliferation rate / viability of drug-treated Jurkat cells (trypan blue count); settings: for cell viability: 24-hour viability observation
Procedure: During experiments, cells were re-suspended in phenol red-free medium (11835-063, GIBCO) in the presence or absence of a drug, either methotrexate hydrate (MTX; […], SIGMA) or 2-deoxy-D-glucose (2DG; […], SIGMA), at a density of 1×10^6 cells/ml. Cell viability was estimated by using a hemocytometer to count trypan blue-stained cells. Relative cell count, presented in FIGS. 6B and 6E-6F, is a ratio of the cell count at t=24 hours to the initial cell count.

Jurkat cells [2] = assay: Extracellular ROS level of drug-treated Jurkat cells measured with the nanowire biosensor; settings: t=6 hours, normalized by the number of live cells
Procedure: For measurements of cellular metabolites/activity, cells were cultured in the chip, namely, in the culture compartment thereof (see, for example, FIG. 1A), while placing the chip in an incubator during measurements. A sample was introduced to the sensing compartment at 20 μl min^-1 by using a syringe pump. Human T lymphocytes, Jurkat (TIB-152, ATCC), were cultured and incubated at 37° C. under a humidified 5% CO2 atmosphere. The culture medium used was RPMI 1640 medium (52400, GIBCO) with 10% fetal bovine serum (FBS; 04-001-1A, Biological Industry) and 1% penicillin/streptomycin (15140, GIBCO). During experiments, cells were re-suspended in phenol red-free medium (11835-063, GIBCO) in the presence or absence of a drug, either methotrexate hydrate (MTX; […], SIGMA) or 2-deoxy-D-glucose (2DG; […], SIGMA), at a density of 1×10^6 cells/ml. Cellular samples were dispensed into the wells of the sensing chip (see FIGS. 1A and 1B) in an incubator. 24-hour monitoring of metabolic activity of drug-treated Jurkat cells by measuring extracellular ROS levels using the nanowire biosensor, was performed and the obtained data is presented in FIGS. 6A-G. Measured ROS levels were normalized by the number of live cells.

Jurkat cells [3] = assay: pH sensing of drug-treated Jurkat cells (reductant-added medium); settings: compared with the control
From the text: A conversion of the modified FET into a pH sensor was achieved by using a reductant-added solution. After supplementing a culture medium with 0.1% v/v DEHA to reduce the modified FET surface, surface proton density varied by protonation or by deprotonation dominantly changes the measured current.
For pH sensing, 0.1% v/v DEHA was supplemented in the sensing medium to reduce the 9,10-anthraquinone monolayer on the FET surface to obtain 9,10-dihydroxyanthracene (see also FIG. 1d) and H2O2 simultaneously. Therefore, no significant amount of H2O2 in a DEHA-supplemented medium altered a measured signal. As a result, surface proton density, varied by protonation or by deprotonation, dominantly changes an acquired signal.

Jurkat cells [4] = assay: Extracellular lactate level of drug-treated Jurkat cells (lactate oxidase, nanowire biosensor); settings: after 24 hours
Procedure: For lactate sensing, 0.1 unit/ml of lactate oxidase (LOX; L0638, SIGMA) was added in phenol red-free medium to convert lactate to pyruvate and H2O2 before lactate reaches the FET array (as depicted in FIG. 1D).
During experiments, cells were re-suspended in phenol red-free medium (11835-063, GIBCO) in the presence or absence of a drug, either methotrexate hydrate (MTX; M8407, SIGMA) or 2-deoxy-D-glucose (2DG; D6134, SIGMA), at a density of 1×10^6 cells/ml.
The correlation between extracellular lactate level of 2DG-treated Jurkat cells and a resultant cell proliferation rate after 24 hours was investigated.

Structure (SMILES) | cell viability (Jurkat cells [1]) | ROS level (Jurkat cells [2]) | pH of cultured cells (Jurkat cells [3]) | cellular lactate secretion (Jurkat cells [4]) | cell proliferation rate (Jurkat cells [1]; after 24 hours, relative cell count)
CN(Cc1cnc2nc(N)nc(N)c2n1)c1ccc(C(=O)N[C@@H](CCC(=O)O)C(=O)O)cc1 [MTX, methotrexate hydrate] | anti-proliferative activity | noticeable decrease | – | – | –
O=CC[C@@H](O)[C@H](O)[C@H](O)CO [2DG, 2-deoxy-D-glucose] | anti-proliferative activity | noticeable decrease | more basic than the control | decreased | reduced proliferation rate
